Experimental data published in patent publication US11555180B2, “Methods and apparatuses for patient-derived micro-organospheres” (Xilis, Inc., priority 2019, dated 2023).

Experiments:
[1] = system: tumor Micro-Organospheres; experiment: drug screen on Patient-Derived Micro-Organospheres formed from a patient tumor biopsy; type: cell-based; conditions: for percent survival of the Micro-Organospheres in the presence of the drug: Example 3, FIG. 23B, 23C
Text: The Patient-Derived Micro-Organospheres described herein may be used in a variety of different assays, and in particular may be used to determine drug formulation effects, including toxicity, on normal and/or abnormal (e.g., cancerous) tissue. For example, drug screening may include applying Micro-Organospheres into all or some wells of multi-well (e.g., a 96-well) plate. Alternatively custom plates may be used (e.g., a 10,000 micro-well array may be formed of a 100 × 100 wells). The Micro-Organospheres (e.g., gel droplets) may be applied into, or in some variations onto the multiple microwell arrays and incubated with culture medium. The Micro-Organospheres may be cultured over the course of 3-5 days. In some variations, on day 5, the wells (e.g., micro-reactors) may then be dosed with drug compounds, e.g., based on a set of FDA-approved anticancer drugs, to examine the effects of the drug panel. For example, the drugs texted may be based on the National Cancer Institute (Division of Cancer Treatment and Diagnosis (11)) screen, consisting of 147 agents intended to enable cancer research, drug discovery and combination drug studies. On Day 7, the Micro-Organospheres may be imaged via standard fluorescent microscopy and ranked based on drug response.
In this example, the screening assay may be automated. This may enable repeatable and automated workflow, which may increase the number of drugs screened from a few to hundreds. FIGS. 17A-17E illustrate one example of this workflow. In FIG. 17A, a tumor biopsy is taken and a plurality (e.g., >10,000) Micro-Organospheres are formed as described above (in FIG. 17A the junction region forming the Micro-Organospheres is illustrated).
The workflow shown in FIGS. 17A-17E may enable an integrated device to be used for growing, dosing and/or reviewing the Micro-Organospheres. […] Their response to drug treatments, such as IC-50, cytotoxicity, and growth curves, may be measured to identify effective therapeutics against the patient's tumor.

[2] = system: patient tumor; experiment: actual response of the patient's tumor to treatment with the drug; type: in vivo
Method: In a similar set of experiments, Micro-Organospheres were generated from biopsy material (FIG. 23A), and a drug effect screen was performed using the resulting Micro-Organospheres. […] Thus, the Micro-Organospheres correlated strongly with patient response to the standard of care drugs. In this case, the patient endured six months of side effects and toxicities that may have been avoided by the predicted response from the Micro-Organospheres, indicating (within 7-10 days from the biopsy) that the tumor would not respond to these drugs.

[3] = system: traditional cell line; experiment: traditional (2D) tumor cell line dosed with drug; type: cell-based; conditions: Example 2, FIG. 22A, all dose ranges examined
Text: As mentioned above, the Patient-Derived Micro-Organospheres and methods of using them to screen for drug compositions may be used to accurately predict the response of a patient tumor to one or more drug therapies. […] For example, in FIG. 22A-22D, the Micro-Organospheres, but not a cell line, was able to correlate with patient response.

Structure (SMILES)	percent survival of the Micro-Organospheres in the presence of the drug [1]	cell survival of tumor Micro-Organospheres ([1]; Example 2, FIG. 22B)	tumor response to treatment ([2]; Example 2, FIG. 22C (before) and 22D (post treatment))	patient response to treatment ([2]; Example 3, treated with both Oxalipalatin and Irinotecan, after 6 months of treatment)	effect of the drug on the cell line [3]
CCc1c2c(nc3ccc(OC(=O)N4CCC(N5CCCCC5)CC4)cc13)-c1cc3c(c(=O)n1C2)COC(=O)[C@]3(O)CC [Irinotecan]	lack of effect				
O=C1[O][Pt]2([NH][C@@H]3CCCC[C@H]3[NH]2)[O]C1=O [Oxaliplatin]	no change in the percent survival	significant decreases in cell survival	responded to treatment	no response	no effect
